{"source": "patent US20050197350A1", "about": "“Novel quinoline, tetrahydroquinazoline, and pyrimidine derivatives and methods of treatment related to the use thereof” (TAISHO PHARMACEUTICAL CO., LTD., priority 2003, published 2005)"}
{"system": "MCH receptors", "assay": "MCH receptor activity class (method not given)", "details": "MCH receptor; class by percent of control at 10^-7 M or IC50"}
{"compound": "CCN(CC)CCCNC(=S)N[C@H]1CC[C@@H](Nc2nc3c(c(N(C)C)n2)CCCC3)CC1", "note": "[compound 2073]", "class": "3 (Class 3 The value of percent of control at 10^−7 M was more than 60% or the value of IC50 was more than 200 nM.)"}
{"compound": "CCCCCCNC(=S)N[C@H]1CC[C@@H](Nc2nc3c(c(N(C)C)n2)CCCC3)CC1", "note": "[compound 1942]", "class": "3 (Class 3 The value of percent of control at 10^−7 M was more than 60% or the value of IC50 was more than 200 nM.)"}
{"compound": "CN(C)c1cc(N[C@H]2CC[C@@H](CNC(=O)c3cccc(I)c3)CC2)nc2ccccc12", "note": "[compound 185, N-[(cis-4-{[4-(dimethylamino)quinolin-2-yl]amino}cyclohexyl)methyl]-3-iodobenzamide]", "class": "3 (Class 3 The value of percent of control at 10^−7 M was more than 60% or the value of IC50 was more than 200 nM.)"}
{"compound": "CN(C)c1cc(N[C@H]2CC[C@@H](NC(=O)/C=C/c3ccccc3)CC2)nc2ccccc12", "note": "[compound 26]", "class": "3 (Class 3 The value of percent of control at 10^−7 M was more than 60% or the value of IC50 was more than 200 nM.)"}
{"compound": "CN(C)c1nc(N[C@H]2CC[C@@H](NC(=S)Nc3ccc(C(C)(C)C)cc3)CC2)nc2c1CCCC2", "note": "[compound 2065]", "class": "3 (Class 3 The value of percent of control at 10^−7 M was more than 60% or the value of IC50 was more than 200 nM.)"}
{"compound": "CN(C)c1cc(N[C@H]2CC[C@@H](CNC(=O)Cc3ccc(F)cc3)CC2)nc2ccccc12", "note": "[compound 195]", "class": "3 (Class 3 The value of percent of control at 10^−7 M was more than 60% or the value of IC50 was more than 200 nM.)"}
{"compound": "CN(C)c1nc(N[C@H]2CC[C@@H](NC(=S)Nc3ccccc3C#N)CC2)nc2c1CCCC2", "note": "[compound 2036]", "class": "3 (Class 3 The value of percent of control at 10^−7 M was more than 60% or the value of IC50 was more than 200 nM.)"}
{"system": "MCH receptors", "assay": "MCH receptor activity class (method not given)", "details": "activity class 1-3: percent of control at 10^-7 M or IC50"}
{"compound": "CN(C)c1cc(NC2CCC(NC(=O)OCc3ccccc3)CC2)nc2ccccc12", "note": "(centres unmarked) [compound 1551]", "class": "3 (Class 3 The value of percent of control at 10^−7 M was more than 60% or the value of IC50 was more than 200 nM.)"}
{"compound": "CN(C)c1ccnc(N[C@H]2CC[C@@H](CNC(=O)OCCOCc3ccccc3)CC2)n1", "note": "[compound 1639]", "class": "3 (Class 3 The value of percent of control at 10^−7 M was more than 60% or the value of IC50 was more than 200 nM.)"}
{"compound": "CN(C)c1nc(N[C@H]2CC[C@@H](NC(=O)Nc3c(Cl)cc(Cl)cc3Cl)CC2)nc2c1CCCC2", "note": "[compound 1669]", "class": "2 (Class 2: The value of percent of control at 10^−7 M was from 40% to 60% or the value of IC′50 was from 50 nM to 200 nM.)"}
{"compound": "CN(C)c1ccnc(N[C@H]2CC[C@@H](CNC(=O)OCC3c4ccccc4-c4ccccc43)CC2)n1", "note": "[compound 1657]", "class": "3 (Class 3 The value of percent of control at 10^−7 M was more than 60% or the value of IC50 was more than 200 nM.)"}
{"compound": "COCCOC(=O)N[C@H]1CC[C@@H](Nc2cc(N(C)C)c3ccccc3n2)CC1", "note": "[compound 1545]", "class": "3 (Class 3 The value of percent of control at 10^−7 M was more than 60% or the value of IC50 was more than 200 nM.)"}
{"system": "MCH receptors", "assay": "MCH receptor activity class (method not given)", "details": "activity class per percent of control at 10^-7 M or IC50"}
{"compound": "C[C@H](C(=O)N[C@H]1CC[C@@H](Nc2nc3c(c(N(C)C)n2)CCCC3)CC1)c1ccc(-c2ccccc2)c(F)c1", "note": "[compound 1016]", "class": "2 (Class 2: The value of percent of control at 10^−7 M was from 40% to 60% or the value of IC′50 was from 50 nM to 200 nM.)"}
{"compound": "CN(C)c1nc(N[C@H]2CC[C@@H](NC(=O)c3csc([N+](=O)[O-])c3)CC2)nc2c1CCCC2", "note": "[compound 1043]", "class": "1 (Class 1: The value of percent of control at 10^−7 M was less than 40% or the value of IC50 was less than 50 nM.)"}
{"compound": "COc1ccc(CN[C@H]2CC[C@@H](Nc3cc(N(C)C)c4ccccc4n3)CC2)c(OC)c1OC", "note": "[compound 1095]", "class": "3 (Class 3 The value of percent of control at 10^−7 M was more than 60% or the value of IC50 was more than 200 nM.)"}
{"compound": "CN(C)c1cc(N[C@H]2CC[C@@H](CNCc3c[nH]c4ccccc34)CC2)nc2ccccc12", "note": "[compound 1124]", "class": "3 (Class 3 The value of percent of control at 10^−7 M was more than 60% or the value of IC50 was more than 200 nM.)"}
{"system": "MCH receptors", "assay": "MCH receptor activity class (method not given)", "details": "class by percent of control at 10^-7 M or IC50"}
{"compound": "CN(C)c1nc(N[C@H]2CC[C@@H](CNCCCCc3ccc([N+](=O)[O-])cc3)CC2)nc2c1CCCC2", "note": "[compound 1512]", "class": "3 (Class 3 The value of percent of control at 10^−7 M was more than 60% or the value of IC50 was more than 200 nM.)"}
{"compound": "COc1ccc(NC(=O)N[C@H]2CC[C@@H](Nc3nc4c(c(N(C)C)n3)CCCC4)CC2)cc1Cl", "note": "[compound 1721]", "class": "3 (Class 3 The value of percent of control at 10^−7 M was more than 60% or the value of IC50 was more than 200 nM.)"}
{"compound": "CN(C)c1cc(N[C@H]2CC[C@@H](CNC(=O)/C=C/c3cccc([N+](=O)[O-])c3)CC2)nc2ccccc12", "note": "[compound 797]", "class": "2 (Class 2: The value of percent of control at 10^−7 M was from 40% to 60% or the value of IC′50 was from 50 nM to 200 nM.)"}
{"compound": "CN(C)c1ccnc(N[C@H]2CC[C@@H](NC(=O)C(c3ccc(Cl)cc3)c3ccc(Cl)cc3)CC2)n1", "note": "[compound 825]", "class": "3 (Class 3 The value of percent of control at 10^−7 M was more than 60% or the value of IC50 was more than 200 nM.)"}
{"compound": "C[C@@H](c1ccccc1)N(C(=O)c1ccccc1C(=O)N[C@H]1CC[C@@H](Nc2nccc(N(C)C)n2)CC1)[C@@H](C)c1ccccc1", "note": "[compound 879, N′-(cis-4-{[4-(dimethylamino)pyrimidin-2-yl]amino}cyclohexyl)-N,N-bis[(1S)-1-phenylethyl]phthalamide]", "class": "1 (Class 1: The value of percent of control at 10^−7 M was less than 40% or the value of IC50 was less than 50 nM.)"}
{"compound": "CN(C)c1nc(N[C@H]2CC[C@@H](NC(=O)/C=C/c3cccc([N+](=O)[O-])c3)CC2)nc2c1CCCC2", "note": "[compound 959]", "class": "3 (Class 3 The value of percent of control at 10^−7 M was more than 60% or the value of IC50 was more than 200 nM.)"}
{"compound": "COc1ccccc1NC(=S)N[C@H]1CC[C@@H](Nc2cc(N(C)C)c3ccccc3n2)CC1", "note": "[compound 2173]", "class": "3 (Class 3 The value of percent of control at 10^−7 M was more than 60% or the value of IC50 was more than 200 nM.)"}
{"compound": "(2-{[4-(4-Dimethylamino-5,6,7,8-tetrahydro-quinazolin-2-ylamino)-cyclohexylamino]-methyl}-cyclohexyl)-phenyl-methanol [compound 1492]", "class": "3 (Class 3 The value of percent of control at 10^−7 M was more than 60% or the value of IC50 was more than 200 nM.)"}
{"compound": "Cc1ccc(CNC[C@H]2CC[C@@H](Nc3cc(N(C)C)c4ccccc4n3)CC2)s1", "note": "[compound 1180]", "class": "3 (Class 3 The value of percent of control at 10^−7 M was more than 60% or the value of IC50 was more than 200 nM.)"}
{"compound": "CN(C)c1cc(N[C@H]2CC[C@@H](NC(=O)Cc3cc(C(C)(C)C)c(O)c(C(C)(C)C)c3)CC2)nc2ccccc12", "note": "[compound 703]", "class": "3 (Class 3 The value of percent of control at 10^−7 M was more than 60% or the value of IC50 was more than 200 nM.)"}
{"compound": "Cc1cc(C)c(CCNC[C@H]2CC[C@@H](Nc3cc(N(C)C)c4ccccc4n3)CC2)c(C)c1", "note": "[compound 1466]", "class": "3 (Class 3 The value of percent of control at 10^−7 M was more than 60% or the value of IC50 was more than 200 nM.)"}
{"compound": "CN(C)c1cc(N[C@H]2CC[C@@H](NC(=O)C3CC(=O)c4ccccc43)CC2)nc2ccccc12", "note": "(relative stereo) [compound 684]", "class": "3 (Class 3 The value of percent of control at 10^−7 M was more than 60% or the value of IC50 was more than 200 nM.)"}
{"compound": "CN(C)c1ccnc(N[C@H]2CC[C@@H](NC(=O)Nc3ccc(Oc4ccccc4)cc3)CC2)n1", "note": "[compound 2222]", "class": "3 (Class 3 The value of percent of control at 10^−7 M was more than 60% or the value of IC50 was more than 200 nM.)"}
{"compound": "CN(C)c1nc(N[C@H]2CC[C@@H](CNCc3cccc(Br)c3)CC2)nc2c1CCCC2", "note": "[compound 1385]", "class": "3 (Class 3 The value of percent of control at 10^−7 M was more than 60% or the value of IC50 was more than 200 nM.)"}
{"compound": "CN(C)c1nc(N[C@H]2CC[C@@H](NC(=O)Nc3ccc4c(c3)OCCCO4)CC2)nc2c1CCCC2", "note": "[compound 1734]", "class": "3 (Class 3 The value of percent of control at 10^−7 M was more than 60% or the value of IC50 was more than 200 nM.)"}
{"compound": "CN(C)c1cc(N[C@H]2CC[C@@H](NC(=S)Nc3ccc(Cl)cc3Cl)CC2)nc2ccccc12", "note": "[compound 2169]", "class": "3 (Class 3 The value of percent of control at 10^−7 M was more than 60% or the value of IC50 was more than 200 nM.)"}
{"compound": "CC(CCN[C@H]1CC[C@@H](Nc2nc3c(c(N(C)C)n2)CCCC3)CC1)c1ccccc1", "note": "(some centres unmarked) [compound 1347]", "class": "3 (Class 3 The value of percent of control at 10^−7 M was more than 60% or the value of IC50 was more than 200 nM.)"}
{"compound": "CN(C)c1cc(N[C@H]2CC[C@@H](CNC(=O)c3cccc(F)c3F)CC2)nc2ccccc12", "note": "[compound 228]", "class": "3 (Class 3 The value of percent of control at 10^−7 M was more than 60% or the value of IC50 was more than 200 nM.)"}
{"system": "MCH receptors", "assay": "MCH receptor activity class (method not given)", "details": "class by percent of control at 10^−7 M or IC50"}
{"compound": "Cc1cnc(N[C@H]2CC[C@@H](NC(=O)c3ccc(F)c(F)c3F)CC2)nc1N(C)C", "note": "[compound 2903, N-(cis-4-{[4-(dimethylamino)-5-methylpyrimidin-2-yl]amino}cyclohexyl)-2,3,4-trifluorobenzamide]", "class": "1 (Class 1: The value of percent of control at 10^−7 M was less than 40% or the value of IC50 was less than 50 nM.)"}
{"compound": "Cc1cnc(N[C@H]2CC[C@@H](NC(=O)c3cccc(Cl)c3)CC2)nc1N(C)C", "note": "[compound 2940, 3-chloro-N-(cis-4-{[4-(dimethylamino)-5-methylpyrimidin-2-yl]amino}cyclohexyl)benzamide]", "class": "1 (Class 1: The value of percent of control at 10^−7 M was less than 40% or the value of IC50 was less than 50 nM.)"}
{"compound": "Cc1cc(N(C)C)nc(N[C@H]2CC[C@@H](C(=O)NCc3cc(C(F)(F)F)cc(C(F)(F)F)c3)CC2)n1", "note": "[compound 2814, cis-N-[3,5-bis(trifluoromethyl)benzyl]-4-{[4-(dimethylamino)-6-methylpyrimidin-2-yl]amino}cyclohexanecarboxamide]", "class": "1 (Class 1: The value of percent of control at 10^−7 M was less than 40% or the value of IC50 was less than 50 nM.)"}
{"compound": "Cc1cc(N(C)C)nc(N[C@H]2CC[C@@H](NC(=O)c3ccc(F)c(C)c3)CC2)n1", "note": "[compound 2964, N-(cis-4-{[4-(dimethylamino)-6-methylpyrimidin-2-yl]amino}cyclohexyl)-4-fluoro-3-methylbenzamide]", "class": "1 (Class 1: The value of percent of control at 10^−7 M was less than 40% or the value of IC50 was less than 50 nM.)"}
